Read-outs that look alike come from different tables or passages of the source.
What was measured:
CaM Kinase II alpha = assay: CaM Kinase II activation; type: cell-based; parameters: key: + = positive result or enzyme activation
Procedure: Invention compounds have the ability to activate CaM Kinase II alpha, a key enzyme involved in memory formation.
To evaluate the ability of a test compound to activate CaM Kinase II alpha, HT22 hippocampal neurons or one week old cortical neurons from embryonic 18 day rats can be prepared according to published procedures (e.g., Soucek et al., Neuron 39:43-56 (2003) and Li et al., Neuron 19:453-463 (1997)). Thus, for example, suitable cells can be treated with 1-2 μM of an exemplary invention compound for a suitable amount of time (e.g., 15, 30, 60 or 120 minutes).
Cells are then lysed and applied to a suitable gel for separation (e.g., P81 phosphocellulose paper, polyacrylamide gel containing SDS, and the like). CaMKII activity can then be assayed using an antibody that recognizes phosphothreonine from both the alpha and beta chains of CaM Kinase II. Invention compounds promote an increase in CaMKII activity of 10% or greater.

HT22 cells [1] = assay: Chemical ischemia (iodoacetic acid) in HT22 mouse hippocampal cells; type: cell-based; parameters: key to In Vitro Ischemia, Mouse hippocampal cells: + = positive result or enzyme activation; conditions: for Cell death caused by treatment of HT22 cells with 20 μM IAA: 20 μM iodoacetic acid for 2 hr, MTT after 24 hr
Procedure: FIG. 2 illustrates the ability of invention compounds CNB-001 and J147 to protect nerve cells from chemical ischemia. HT22 cells were treated with 20 μM iodoacetic acid for 2 hr alone or in the presence of varying concentrations of CNB-001 or J147. % survival was confirmed by microscopy and measured after 24 hr by the MTT assay.
Most cell culture models of ischemia utilize primary cortical cultures that are exposed to some form of oxygen and glucose deprivation. While these assays may come closer to mimicking the in vivo conditions than assays employing neuronal cell lines, they have a number of problems that make them difficult to use for the routine screening of potential neuroprotective compounds. The most serious problem is that the condition needed to kill a fixed percentage of cells are highly variable from experiment to experiment, making it very difficult to get accurate values for neuroprotective activity. In order to circumvent this and other problems, a mouse nerve cell line was used in combination with chemical ischemia as a screen for potential neuroprotective drugs for ischemia. To induce chemical ischemia, iodoacetic acid (IAA), a well known, irreversible inhibitor of the glycolytic enzyme glyceraldehyde 3-phosphate dehydrogenase (G3PDH) (see B. S. Winkler et al., Modulation of the Pasteur effect in retinal cells: implications for understanding compensatory metabolic mechanisms, in Exp Eye Res 76 (2003) 715-723) was used in combination with the HT22 mouse hippocampal cell line. IAA has been used in a number of other studies to induce ischemia in nerve cells. The changes following IAA treatment of neural cells are very similar to changes which have been seen in animal models of CNS trauma and ischemia. These include alterations in membrane potential, breakdown of phospholipids, loss of ATP, and an increase in reactive oxygen species. A 2 hr treatment of the HT22 cells with 20 μM IAA induces over 90% cell death 20 hr later. […]

MC-65 cells = assay: MC65 intracellular amyloid toxicity assay; type: cell-based; conditions: for EC50: MC65; for Protection against intracellular protein aggregation and toxicity: MC-65 cells, tetracycline removal, MTT 5 days later
Procedure: FIG. 4A illustrates the viability of MC-65 cells upon exposure to the indicated concentrations of compounds, and the degree to which synthesis of the C-terminal fragment of APP is induced by the removal of tetracycline. Cell death was determined 5 days later by the MTT assay and confirmed visually. The data are plotted as percent viable, relative to controls of drug plus un-induced cells.

Amyloid = assay: Extracellular amyloid toxicity (cell culture); type: cell-based
HT22 cells [2] = assay: HT22 oxidative glutamate toxicity (oxytosis) assay; type: cell-based, mouse; conditions: for EC50: Mus musculus, HT-22
Procedure: FIG. 1D illustrates the results of an oxidative stress assay. HT22 cells were treated with 5 mM glutamate and different concentrations of two versions of curcumin derivatives. Cell viability was measured 24 hr later by the MTT assay (J. B. Davis and P. Maher, Protein kinase C activation inhibits glutamate-induced cytotoxicity in a neuronal cell line. Brain Res. 652 (1994) 169-173). Legend for FIG. 1A, FIG. 1B and FIG. 1D: x-x, Cmpd CNB-001, o-o, Cmpd J147.
Similar toxicity assays as described above are also conducted with invention compounds using HT22 cells in an assay for oxidative stress. After exposure with 1 mM, 2 mM, 2.5 mM, or 5 mM glutamate, cell viability is determined with the MTT assay.
HT22 hippocampal neurons are treated with 5 mM glutamate and increasing concentrations of invention compounds. Cell viability is measured 24 hr later by the MTT assay (Davis and Maher, Brain Res. 652:169-173 (1994)).

[3] = Cell Culture, read-out: Amyloid Toxicity, Intracellular
[4] = Cell Culture (Table 2), read-out: Oxidative Glutamate Toxicity

Row | Compound | CaMKinase II (CaM Kinase II alpha) | In Vitro Ischemia, Mouse hippocampal cells (HT22 cells [1]) | Cell death caused by treatment of HT22 cells with 20 μM IAA (HT22 cells [1]) | EC50 (MC-65 cells; [3]) | Protection against intracellular protein aggregation and toxicity (MC-65 cells) | EC50 (Amyloid) | EC50 (HT22 cells [2]; [4]) | HT22 cells that live (HT22 cells [2]; glutamate, in the presence of Cmpd CNB-001 at 1 μM) | EC50 (MC-65 cells; Intracellular amyloid toxicity, read-out: MC65 EC50) | EC50 (HT22 cells [2]; HT22 cells, following 5 mM glutamate exposure, MTT, read-out: EC50) | EC50 (HT22 cells [2]; Oxidative glutamate toxicity (oxytosis), read-out: HT-22 EC50)
1 | COc1cc(/C=C/c2cc(/C=C/c3ccc(O)c(OC)c3)n(-c3ccccc3)n2)ccc1O [CNB-001] | + | + | can be prevented | 200 nM | neuroprotective | 500 nM | 500 nM | over 90% |  |  | 
2 | COc1cccc(/C=N/N(C(=O)C(F)(F)F)c2ccc(C)cc2C)c1 [Compound J147] | + |  | can be prevented | 3 nM | neuroprotective | 10 nM | 5 nM |  | 10 nM | ~5 nM | 6 nM

Reference: US8779002B2, “Methods for treating a variety of diseases and conditions, and compounds useful therefor” (Salk Institute for Biological Studies, priority 2007, dated 2014)
